Laboratory results as given in patent publication US12699090B2 (priority 2019, dated 2026).
Entries after “also recorded” stand apart in the source; their conditions may differ.

These sequences were tested on PBMCs isolated from naturally M. bovis-infected cattle.
Assay type: cell-based, cattle (Bos taurus taurus)
For “SHHDNAAVDASSGVEAAAGL (artificial protein fragment) [compound 36, short Rv3615c peptide]”, the “recognition of individual peptide (IFN-γ ELISPOT response, Z-scores)” value (“recognition of individual peptide” for short) was “poor recognition could be compensated”.
With “GQWRGAAGTAAQAAVVRFQEAANKQKQELDEISTNIRQAG [compound 7]” the “recognition of individual peptide” value was “far stronger response”.
With “AANKQKQELDEISTNIRQAGVQYSRADEEQQQALSSQMGF [compound 8]” the “recognition of individual peptide” value was “far stronger response”.
“AITHGPYCSQFNDTLNVYLT (artificial protein fragment) [compound 39, short Rv3615c peptide]” was tested, and the “recognition of individual peptide” value was “poor recognition could be compensated”.
With “MTENLTVQPERLGVLASHHDNAAVDASSGVEAAAGLGESV (artificial protein fragment) [compound 9, long Rv3615c fragment]” the “recognition of individual peptide” value was “poorly recognized”.
With QEAGNFERISGDLKTQ [peptide 25] the “recognition of individual peptide” value was “strongly recognized; also recorded: recognized promiscuously”.
For “AITHGPYCSQFNDTLNVYLTAHNALGSSLHTAGVDLAKSL (artificial protein fragment) [compound 10, long Rv3615c fragment]”, the “recognition of individual peptide” value was “poorly recognized”.
In the case of “KQSLTKLAAAWGGSGS (artificial protein fragment) [peptide 17, short ESAT-6 peptide]”, the “recognition of individual peptide” value is reported as “strong epitope”.
With “MAEMKTDAATLAQEAGNFERISGDLKTQIDQVESTAGSLQ [compound 5]” the “recognition of individual peptide” value was “poorly recognized”.
In the case of “NVTSIHSLLDEGKQSLTKLAAAWGGSGSEAYQGVQQKWDA [peptide 2]”, the “recognition of individual peptide” value is reported as “poorly and infrequently recognized”.
